Data as given in patent publication US6376484B1, “Tetrazole compounds and pharmaceutical agents containing such derivative as an active ingredient” (Ono Pharmaceutical Co., Ltd., priority 1995, dated 2002).

Target: T1, human ICE (IL-1β converting enzyme) (Homo sapiens, UniProt P29466)
T1 sequence (P29466 120-297 limits assumed): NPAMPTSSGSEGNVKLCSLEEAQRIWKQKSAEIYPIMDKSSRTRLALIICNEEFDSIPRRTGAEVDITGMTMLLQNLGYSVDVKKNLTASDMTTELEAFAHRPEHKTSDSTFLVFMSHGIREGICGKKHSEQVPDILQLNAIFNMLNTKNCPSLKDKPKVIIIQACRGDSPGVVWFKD
T1 sequence (P29466 317-404 limits assumed): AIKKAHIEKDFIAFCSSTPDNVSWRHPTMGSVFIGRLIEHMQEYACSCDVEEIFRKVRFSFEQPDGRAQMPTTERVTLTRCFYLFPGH
Experiment: Assay for IL-1β converting enzyme (ICE) inhibition, fluorogenic substrate Ac-Tyr-Val-Ala-Asp-MCA
Format: biochemical
Settings: human ICE solution, 37° C., fluorescence, read-out: IC50, ICE inhibitory activity
Experimental: (1) Assay for IL-1β converting enzyme
The reaction mixture contains, for example, 20 mM of HEPES-NaOH pH7.4, 10 mM of KOH, 1.5 mM of MgCl2, 0.1 mM of EDTA and 10% glycerol. Various concentrations of test compounds (50 μl), human ICE solution (50 μl) and various concentrations of substrate (Ac-Tyr-Val-Ala-Asp-MCA) were mixed and incubated at 37° C. Fluorescence intensity was measured at […].
In the aboved example method,
HEPES is 4-(2-Hydroxyethyl)-1-piperazineethane-sulfonic acid,
EDTA is Ethylenediamine tetraacetate, and
Ac-Tyr-Val-Ala-Asp-MCA is Acetyl-L-tyrosyl-L-valyl-L-alanyl-L-asparaginic acid 4-methyl-coumarinyl-7-amide.

IC50: 30 nM
Compound: CC(C)[C@H](NC(=O)CCc1ccccc1)C(=O)N[C@@H](C)C(=O)NC(CC(=O)O)C(=O)Cn1nnnc1Cc1c(Cl)cccc1Cl (stereo partly drawn) [Example 2(1), N-((N-(3-phenylpropionyl)-L-valyl)-L-alanyl)-3-amino-4-oxo-5-(5-(2,6-dichlorophenylmethyl)tetrazol-1-yl)pentanoic acid]
